Results as given in patent publication US20250332266A1, “COMPOUNDS FOR THE DEGRADATION OF EGFR KINASE” (BeiGene Switzerland GmbH, priority 2022, published 2025).

Tests used:
[1] = target: EGFR Del19/T790M/C797S (H1975-clone #28) (Homo sapiens, UniProt P00533, T790M/C797S, form not given); assay: EGFR degradation, HTRF total-EGFR assay, H1975-clone #28 (DTC); type: cell-based; settings: H1975-clone #28 Del19/T790M/C797S, 16 h treatment
Description: (§1) H1975-clone #28 (Del19/T790M/C797S, or abbr: DTC), H1975-clone #23 (Del19/C797S, or abbr: DC), H1975-clone #25 (L858R/T790M/C797S, or abbr: LTC) and H1975-clone #8 (L858R/C797S, or abbr: LC). EGFR-Del19/T790M/C797S, EGFR-Del19/C797S, EGFR-L858R/T790M/C797S and EGFR-L858R/C797S were stably expressed in H1975 cell lines by lentivirus-mediated over-expression, respectively. The EGFR over-expressed cells then underwent knockout, in which the EGFR targeting sgRNA was designed to only target the endogenous EGFR copies and preserve the exogenous EGFR copies. Followed by the knockout, the edited H1975 cells were seeded in 96 well plates at the concentration of 1 cell/well, cultured for about 2 weeks to allow single clones formation. The formed clones were screened by DNA sequencing and whole exon sequencing analysis for the desired edition. H1975-clone #28, H1975-clone #23, H1975-clone #25 and H1975-clone #8 were finally confirmed as homozygous Del19/T790M/C797S EGFR, Del19/C797S EGFR, L858R/T790M/C797S EGFR and L858R/C797S EGFR clones, respectively.
(§2) H1975-#25, H1975-#28, H1975-#23 and H1975-#8 cells are treated with compounds diluted in 0.2% DMSO cell culture medium on day 2, incubate for 16 h, 37° C., 5% CO2. The final concentration of compounds in all assay is start with 10 μM, 5-fold dilution, total 8 doses were included.
(§3) Total-EGFR cellular kit(64NG1PEH) were used for evaluating EGFR degradation.
(§4) After 16 h treatment, add HTRF lysis buffer to each well; seal the plate and incubate 1 hour at room temperature on a plate shaker; Once the cells are lysed, 16 μL of cell lysate are transferred to a PE 384-well HTRF detection plate; 4 μL of pre-mixed HTRF antibodies are added to each well; cover the plate with a plate sealer, spin 1000 rpm for 1 min, incubate overnight at room temperature; read on BMG PheraStar with HTRF protocol (337 nm-665 nm-620 nm).
(§5) The inhibition (degradation) percentage of the compound was calculated by the following equation:
(§6) Inhibition percentage of Compound=100−100×(Signal−low control)/(High control−low control), wherein signal=each test compound group
(§7) High control=Cell group with added DMSO and without compound, indicating microplate readings without EGFR degradation.
(§8) Imax (Dmax) is the maximum percentage of inhibition (degradation).
(§9) The IC50 (DC50) value of a compound can be obtained by fitting the following equation
(§10) Wherein, X and Y are known values, and IC50, Hillslope, Top and Bottom are the parameters obtained by fitting with software. Y is the inhibition percentage (calculated from the equation), X is the concentration of the compound; IC50 is the concentration of the compound when the 50% inhibition is reached. The smaller the IC50 value is, the stronger the inhibitory ability of the compound is. Vice versa, the higher the IC50 value is, the weaker the ability the inhibitory ability of the compound is; Hillslope represents the slope of the fitted curve, generally around 1*; Bottom represents the minimum value of the curve obtained by data fitting, which is generally 0%±20%; Top represents the maximum value of the curve obtained by data fitting, which is generally 100%±20%. The experimental data were fitted by calculating and analyzing with Dotmatics data analysis software.

[2] = target: T1, EGFR L858R/T790M/C797S (H1975-clone #25) (Homo sapiens, UniProt P00533, C797S/L858R/T790M); assay: EGFR degradation, HTRF total-EGFR assay, H1975-clone #25 (LTC); type: cell-based; settings: H1975-clone #25 L858R/T790M/C797S, 16 h treatment
T1 construct: expressed in transfected cells; host or cells: H1975 (clone #25), lentiviral transduction, endogenous EGFR knocked out
T1 sequence (P00533 25-1210 T790M/C797S/L858R): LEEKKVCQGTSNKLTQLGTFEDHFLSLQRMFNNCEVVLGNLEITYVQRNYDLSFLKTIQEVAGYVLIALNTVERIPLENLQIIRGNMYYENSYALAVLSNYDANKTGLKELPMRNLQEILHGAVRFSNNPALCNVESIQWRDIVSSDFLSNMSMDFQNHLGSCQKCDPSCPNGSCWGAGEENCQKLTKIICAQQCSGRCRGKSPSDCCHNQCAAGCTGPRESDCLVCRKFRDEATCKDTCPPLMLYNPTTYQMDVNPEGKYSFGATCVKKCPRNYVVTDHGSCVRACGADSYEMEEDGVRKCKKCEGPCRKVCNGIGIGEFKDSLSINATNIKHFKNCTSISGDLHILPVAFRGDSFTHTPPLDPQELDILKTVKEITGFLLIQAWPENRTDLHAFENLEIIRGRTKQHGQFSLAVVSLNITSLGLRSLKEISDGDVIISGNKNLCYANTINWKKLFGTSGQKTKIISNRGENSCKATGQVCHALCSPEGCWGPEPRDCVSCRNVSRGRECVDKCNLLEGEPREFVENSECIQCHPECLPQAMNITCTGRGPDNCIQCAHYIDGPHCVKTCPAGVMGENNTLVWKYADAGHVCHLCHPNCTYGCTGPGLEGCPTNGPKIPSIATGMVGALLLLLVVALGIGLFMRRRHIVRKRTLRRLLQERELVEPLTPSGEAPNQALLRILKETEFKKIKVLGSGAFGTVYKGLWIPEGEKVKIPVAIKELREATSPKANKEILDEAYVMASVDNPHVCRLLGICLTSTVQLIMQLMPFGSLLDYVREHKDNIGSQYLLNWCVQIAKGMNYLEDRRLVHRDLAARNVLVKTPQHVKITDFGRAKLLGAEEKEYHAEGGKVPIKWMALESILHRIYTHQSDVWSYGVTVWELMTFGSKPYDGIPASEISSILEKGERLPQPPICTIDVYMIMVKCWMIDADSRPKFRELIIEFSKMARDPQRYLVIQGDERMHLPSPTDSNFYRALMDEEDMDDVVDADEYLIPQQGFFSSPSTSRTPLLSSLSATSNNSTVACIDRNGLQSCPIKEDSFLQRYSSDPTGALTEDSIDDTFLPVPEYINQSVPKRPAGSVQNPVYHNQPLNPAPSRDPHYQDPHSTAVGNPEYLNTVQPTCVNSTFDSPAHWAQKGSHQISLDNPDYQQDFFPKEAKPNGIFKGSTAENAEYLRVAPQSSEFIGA
Description: as §1, §2, §3, §4, §5, §6, §7, §8, §9, §10

Sequence of EGFR Del19/T790M/C797S (H1975-clone #28) (P00533 with tags, fused parts or gaps DEL746-750/T790M/C797S, form open): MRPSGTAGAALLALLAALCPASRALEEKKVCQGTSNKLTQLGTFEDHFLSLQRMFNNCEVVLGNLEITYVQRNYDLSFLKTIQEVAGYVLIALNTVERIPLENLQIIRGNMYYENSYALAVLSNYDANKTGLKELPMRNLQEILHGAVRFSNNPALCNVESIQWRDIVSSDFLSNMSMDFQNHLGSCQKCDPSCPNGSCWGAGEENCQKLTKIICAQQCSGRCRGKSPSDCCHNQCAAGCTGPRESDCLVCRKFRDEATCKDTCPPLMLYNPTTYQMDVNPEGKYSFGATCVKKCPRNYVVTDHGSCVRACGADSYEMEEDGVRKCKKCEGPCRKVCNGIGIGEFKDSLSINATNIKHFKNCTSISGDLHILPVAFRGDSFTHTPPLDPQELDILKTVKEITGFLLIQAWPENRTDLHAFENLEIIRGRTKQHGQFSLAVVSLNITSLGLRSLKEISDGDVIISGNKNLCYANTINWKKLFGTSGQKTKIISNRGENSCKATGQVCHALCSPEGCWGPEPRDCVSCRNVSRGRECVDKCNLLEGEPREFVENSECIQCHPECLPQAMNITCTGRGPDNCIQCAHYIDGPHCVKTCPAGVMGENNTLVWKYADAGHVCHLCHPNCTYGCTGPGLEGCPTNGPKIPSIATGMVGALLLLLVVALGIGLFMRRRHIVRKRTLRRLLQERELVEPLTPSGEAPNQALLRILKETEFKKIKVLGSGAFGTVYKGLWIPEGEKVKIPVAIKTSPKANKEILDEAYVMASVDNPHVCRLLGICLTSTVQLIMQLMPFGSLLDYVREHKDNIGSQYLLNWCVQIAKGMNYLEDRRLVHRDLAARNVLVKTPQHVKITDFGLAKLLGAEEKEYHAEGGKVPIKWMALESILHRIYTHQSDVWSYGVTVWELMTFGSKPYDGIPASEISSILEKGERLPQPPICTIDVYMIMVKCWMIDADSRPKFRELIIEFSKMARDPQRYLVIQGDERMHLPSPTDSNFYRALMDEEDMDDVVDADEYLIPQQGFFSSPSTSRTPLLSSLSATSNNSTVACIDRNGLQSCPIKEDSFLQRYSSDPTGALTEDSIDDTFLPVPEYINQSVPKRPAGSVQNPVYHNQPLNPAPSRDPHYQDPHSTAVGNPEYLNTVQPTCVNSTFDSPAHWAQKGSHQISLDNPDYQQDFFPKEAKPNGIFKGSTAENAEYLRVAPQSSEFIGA

Compound | Degradation H1975 # 28 DTC [1] | Degradation H1975 # 25-LTC [2]
Cc1cc2cc(n1)-c1cnn(C)c1OC[C@H]1C[C@@H](CN3/C(=N/C2=O)Nc2ccc(N4CCN(CCNc5cc(F)c([C@H]6CCC(=O)NC6=O)c(F)c5)CC4)cc23)C1 (single isomer, unassigned) [Example 14] | 77.1 | 83.9
Cc1cc2cc(n1)-c1cnn(C)c1OC[C@H]1C[C@@H](CN3/C(=N/C2=O)Nc2ccc(N4CCN([C@H]5C[C@@H](Nc6cc(F)c([C@H]7CCC(=O)NC7=O)c(F)c6)C5)CC4)cc23)C1 (single isomer, unassigned) [Example 16] | 71.5 | 64.0
Cc1cc2cc(n1)-c1cnn(C)c1OC[C@H]1C[C@@H](CN3/C(=N/C2=O)Nc2ccc(N4CCN(C5CCN(c6cnc(C7CCC(=O)NC7=O)c(F)c6)CC5)CC4)cc23)C1 (single isomer, unassigned) [Example 38, 3-(5-(4-(4-((7^1s,7^3s,E)-1^1,2^6-dimethyl-3-oxo-5^2,5^3-dihydro-1^1H,5^1H-9-oxa-4-aza-5(2,1)-benzo[d]imidazola-2(2,4)-pyridina-1(4,5)-pyrazola-7(1,3)-cyclobutanacyclononaphane-5^6-yl)piperazin-1-yl)piperdine-1-yl)-3-fluoropyridin-2-yl)piperidine 6-dione] | 78.4 | 81.4
Cc1cc2cc(n1)-c1cnn(C)c1OC[C@H]1C[C@@H](CN3/C(=N/C2=O)Nc2ccc(N4CCN(C5CCN(c6cnc(C7CCC(=O)NC7=O)cc6C)CC5)C[C@H]4C)cc23)C1 (stereo partly drawn) [Example 1, 3-(5-(4-((R)-4-((7^1s,7^3S,E)-1^1,2^6-dimethyl-3-oxo-5^2,5^3-dihydro-1^1H,5^1H-9-oxa-4-aza-5(2,1)-benzo[d]imidazola-2(2,4)-pyridina-1(4,5)-pyrazola-7(1,3)-cyclobutanacyclononaphane-5^6-yl)-3-methylpiperazin-1-yl)piperidin-1-yl)-4-methylpyridin-2-yl)piperidine-2,6-dione] | 91.9 | 92.8

Further lines, results first:

Degradation H1975 # 28 DTC [1] | Degradation H1975 # 25-LTC [2] | Compound
84.3 | 62.0 | Cc1cc2cc(n1)-c1cnn(C)c1OC[C@H]1C[C@H](CN3/C(=N/C2=O)Nc2ccc(CN4CCN(C(=O)C5CN(c6cc(F)c([C@H]7CCC(=O)NC7=O)c(F)c6)CC5(C)C)CC4)cc23)C1 (stereo partly drawn) [Example 2, (R)-3-(4-((S)-4-(4-(((7^1r,7^3S,E)-1^1,2^6-dimethyl-3-oxo-5^2,5^3-dihydro-1^2H,5′H-9-oxa-4-aza-5(2,1)-benzo[d]imidazola-2(2,4)-pyridina-1(4,5)-pyrazola-7(1,3)-cyclobutanacyclononaphane-5^6-yl)methyl)piperazine-1-carbonyl)-3,3-dimethylpyrrolidin-1-yl)-2,6-difluorophenyl)piperidine-2,6-dione]
86.7 | 85.6 | Cc1cc2cc(n1)-c1cnn(C)c1OC[C@H]1C[C@@H](CN3/C(=N/C2=O)Nc2ccc(CN4CCN(C(=O)C5CN(c6cc(F)c([C@H]7CCC(=O)NC7=O)c(F)c6)C5)CC4)cc23)C1 [Example 3, (R)-3-(4-(3-(4-(((7^1s,7^3s,E)-1^1,2^6-dimethyl-3-oxo-5^2,5^3-dihydro-1^1H,5^1H-9-oxa-4-aza-5(2,1)-benzo[d]imidazola-2(2,4)-pyridina-1(4,5)-pyrazola-7(1,3)-cyclobutanacyclononaphane-5^6-yl)methyl)piperazine-1-carbonyl)azetidin-1-yl)-2,6-difluorophenyl)piperidine-2,6-dione]
